IC50 data for 18 compounds are collected here from US11976083B2, “Inhibitors of peptidylarginine deiminases” (Gilead Sciences, Inc., priority 2020, dated 2024).

T1 sequence (Q9UM07 2-663): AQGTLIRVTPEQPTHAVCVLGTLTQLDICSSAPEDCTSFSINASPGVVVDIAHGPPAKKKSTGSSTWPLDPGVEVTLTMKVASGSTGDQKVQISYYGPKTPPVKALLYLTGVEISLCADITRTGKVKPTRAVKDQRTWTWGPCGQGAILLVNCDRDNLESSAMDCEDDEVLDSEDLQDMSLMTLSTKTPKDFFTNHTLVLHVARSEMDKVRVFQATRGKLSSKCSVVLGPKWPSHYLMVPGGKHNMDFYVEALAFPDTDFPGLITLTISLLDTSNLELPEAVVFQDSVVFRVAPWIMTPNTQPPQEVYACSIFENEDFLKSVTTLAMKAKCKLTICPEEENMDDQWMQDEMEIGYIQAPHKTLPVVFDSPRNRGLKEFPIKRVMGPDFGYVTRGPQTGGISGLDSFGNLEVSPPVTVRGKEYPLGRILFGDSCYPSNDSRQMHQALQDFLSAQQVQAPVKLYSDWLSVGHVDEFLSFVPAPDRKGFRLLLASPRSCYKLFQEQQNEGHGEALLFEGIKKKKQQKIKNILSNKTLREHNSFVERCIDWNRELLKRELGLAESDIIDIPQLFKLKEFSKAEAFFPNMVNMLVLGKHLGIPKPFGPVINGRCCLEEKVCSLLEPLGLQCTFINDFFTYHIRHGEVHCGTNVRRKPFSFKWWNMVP

The test concerns the target T1, human PAD4 (Homo sapiens, UniProt Q9UM07).
T1 construct: human PAD4 (NM_012387), A2-P663, was PCR amplified; His-SUMO (N, cleaved yes); made in house; host or cells: E. coli BL21(DE3)
As to the kind of experiment: In vitro PAD4 BAEE biochemical assay. The following applies: BAEE substrate 3 mM, 5 nM PAD4, 2 mM calcium chloride; geometric mean of multiple experiments. In outline: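 PAD4 5 nM, CaCl2 2 mM, BAEE 3 mM final; 50 mM MOPS pH 7.6, 50 mM NaCl, 0.05% Tween-20, 2 mM DTT. Cpd + enzyme 30 min 25 °C; substrate 2 h 25 °C; EDTA stop; OPA detection 1 h. IC50 4-parameter fit.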
Take `COCCOCCn1c(-c2cc3ccc4nc3n2CCCCC[C@@H]2C[C@H]2C(=O)N[C@@H]4C)nc2cc(C(=O)N[C@H]3CNCC[C@@H]3F)c(F)cc21` [Example 427, 6-fluoro-~{N}-[(3~{S),4~{S})-4-fluoro-3-piperidyl]-1-[2-(2-methoxyethoxy)ethyl]-2-[(2~{R},5~{R},7~{R})-2-methyl-4-oxo-3,13,19-triazatetracyclo[11.5.2.0^{5,7}.0^{16,20}]icosa-1(19),14,16(20),17-tetraen-14-yl]benzimidazole-5-carboxamide]: the IC50 came out at 54 nM. To `C[C@H]1NC(=O)[C@@H]2C[C@H]2CCCCCn2c(-c3nc4cc(C(=O)N[C@H]5CNCC[C@@H]5F)c(F)cc4n3CCC(N)=O)cc3ccc1nc32` [Example 428, 1-(3-amino-3-oxo-propyl)-6-fluoro-~ {N}-[(3~{S},4~{S})-4-fluoro-3-piperidyl]-2-[(2~{R},5~{R},7~{R})-2-methyl-4-oxo-3,13,19-triazatetracyclo[11.5.2.0^{5,7}.0^{16,20}]icosa-1(19),14,16(20),17-tetraen-14-yl]benzimidazole-5-carboxamide] belongs 29 nM; to `C[C@H]1NC(=O)[C@@H]2C[C@H]2CCCCCn2c(-c3nc4cc(C(=O)N[C@H]5CNCC[C@@H]5F)c(F)cc4n3CCOc3ccccc3)cc3ccc1nc32` [Example 429], 68 nM.

With `COC(C)Cn1c(-c2cc3ccc4nc3n2CCCCC[C@@H]2C[C@H]2C(=O)N[C@@H]4C)nc2cc(C(=O)N[C@H]3CNCC[C@@H]3F)c(F)cc21` (stereo partly drawn) [Example 430, 6-fluoro-~{N}-[(3~{S},4~{S})-4-fluoro-3-piperidyl]-1-(2-methoxypropyl)-2-[(2~{R},5~{R},7~{R})-2-methyl-4-oxo-3,13,19-triazatetracyclo[11.5.2.0^{5,7}.0^{16,20}]icosa-1(19),14,16(20),17-tetraen-14-yl]benzimidazole-5-carboxamide], the IC50 amounted to 44 nM.

For the compound `COCCn1c(-c2cc3ccc4nc3n2CCCCC[C@@H]2C[C@H]2C(=O)N[C@@H]4C)nc2cc(C(=O)N[C@H]3CNCC[C@@H]3F)cc(OC)c21` [Example 431, ~{N}-[(3~{S},4~{S})-4-fluoro-3-piperidyl]-7-methoxy-1-(2-methoxyethyl)-2-[(2~{R},5~{R},7~{R})-2-methyl-4-oxo-3,13,19-triazatetracyclo[11.5.2.0^{5,7}.0^{16,20}]icosa-1(19),14,16(20),17-tetraen-14-yl]benzimidazole-5-carboxamide], the IC50 was 41 nM. Then `COCCn1c(-c2cc3ccc4nc3n2CCCCC[C@@H]2C[C@H]2C(=O)N[C@@H]4C)nc2cc(C(=O)N3CC[C@@H](OC)[C@@H](N)C3)cc(OC)c21` [Example 432, (2~{R},5~{R},7~{R})-14-[5-[(3~{S},4~{R})-3-amino-4-methoxy-piperidine-1-carbonyl]-7-methoxy-1-(2-methoxyethyl)benzimidazol-2-yl]-2-methyl-3,13,19-triazatetracyclo[11.5.2.0^{5,7}.0^{16,20}] icosa-1(19),14,16(20),17-tetraen-4-one], with 161 nM. Regarding `COCCn1c(-c2cc3ccc4nc3n2CCCCC[C@@H]2C[C@H]2C(=O)N[C@@H]4C)nc2cc(C(=O)N3CCC[C@@H](N)C3)cc(OC)c21` [Example 433, (2~{R},5~{R},7~{R})-14-[5-[(3~{R})-3-aminopiperidine-1-carbonyl]-7-methoxy-1-(2-methoxyethyl)benzimidazol-2-yl]-2-methyl-3,13,19-triazatetracyclo[11.5.2.0^{5,7}.0^{16,20}] icosa-1(19),14,16(20),17-tetraen-4-one], the IC50 turned out to be 46 nM. Then `C[C@H]1NC(=O)[C@@H]2C[C@H]2CCCCCn2c(-c3nc4cc(C(=O)N[C@H]5CNCC[C@@H]5F)c(F)cc4n3CCOc3ccccn3)cc3ccc1nc32` [Example 434, 6-fluoro-~{N}-[(3~{S),4~{S})-4-fluoro-3-piperidyl]-2-[(2~{R},5~{R},7~{R})-2-methyl-4-oxo-3,13,19-triazatetracyclo[11.5.2.0^{5,7}.0^{16,20}]icosa-1(19),14,16(20),17-tetraen-14-yl]-1-[2-(2-pyridyloxy)ethyl]benzimidazole-5-carboxamide], with 41 nM; and `COCCn1c(-c2cc3ccc4nc3n2CCCCCc2nccnc2C(=O)N[C@@H]4C)nc2cc(C(=O)N3CC[C@@H](OC)[C@@H](N)C3)cc(F)c21` [Example 435, (2~{R})-17-[5-[(3~{S},4~{R})-3-amino-4-methoxy-piperidine-1-carbonyl]-7-fluoro-1-(2-methoxyethyl)benzimidazol-2-yl]-2-methyl-3,6,9,16,22-pentazatetracyclo[14.5.2.0^{5,10}.0^{19, 23}]tricosa-1(22),5(10),6,8,17,19(23),20-heptaen-4-one], with 394 nM; and `COCCn1c(-c2cc3ccc4nc3n2CCCCC[C@@H]2C[C@H]2C(=O)N[C@@H]4C)nc2cc(C(=O)N3CC[C@@H](OC)[C@@H](N)C3)cc(F)c21` [Example 436, (2~{R},5~{R},7~{R})-14-[5-[(3~{S},4~{R})-3-amino-4-methoxy-piperidine-1-carbonyl]-7-fluoro-1-(2-methoxyethyl)benzimidazol-2-yl]-2-methyl-3,13,19-triazatetracyclo[11.5.2.0^{5,7}.0^{16,20}] icosa-1(19),14,16(20),17-tetraen-4-one], with 93 nM. To `COc1cc(C(=O)N2C[C@H](N)[C@@H]3CC[C@H]2C3)cc2nc(-c3cc4ccc5c(F)c4n3CC(F)(F)CCC[C@@H]3C[C@H]3C(=O)N[C@@H]5C)n(C)c12` [Example 437, (2~{R},5~{R},7~{R})-14-[5-[(1~{S},4~{R},5~{R})-4-amino-2-azabicyclo[3.2.1]octane-2-carbonyl]-7-methoxy-1-methyl-benzimidazol-2-yl]-11,11,19-trifluoro-2-methyl-3,13-diazatetracyclo[11.5.2.0^{5,7}.0^{16,20}] icosa-1(19),14,16(20),17-tetraen-4-one] belongs 30 nM; to `C[C@H]1NC(=O)[C@@H]2C[C@H]2CCCC(F)(F)Cn2c(-c3nc4cc(C(=O)N5C[C@H](N)[C@@H]6CC[C@H]5C6)cc(F)c4n3C3CC3)cc3ccc1nc32` [Example 438, (2~{R},5~{R},7~{R})-14-[5-[(1~{S},4~{R},5~{R})-4-amino-2-azabicyclo[3.2.1]octane-2-carbonyl]-1-cyclopropyl-7-fluoro-benzimidazol-2-yl]-11,11-difluoro-2-methyl-3,13,19-triazatetracyclo[11.5.2.0^{5,7}.0^{16,20}] icosa-1(19),14,16(20),17-tetraen-4-one], 25 nM; to `COc1cc(C(=O)N2C[C@H](N)[C@@H]3CC[C@H]2C3)cc2nc(-c3cc4ccc5nc4n3CCCCCc3ccccc3C(=O)N[C@@H]5C)n(C)c12` [Example 439, (2˜{R})-17-[5-[(1˜{S},4˜{R},5˜{R})-4-amino-2-azabicyclo[3.2.1]octane-2-carbonyl]-7-methoxy-1-methyl-benzimidazol-2-yl]-2-methyl-3,16,22-triazatetracyclo[14.5.2.0^{5,10}.0^{19,23}]tricosa-1(22),5(10),6,8,17,19(23),20-heptaen-4-one], 32 nM.

For `C[C@H]1NC(=O)c2c(F)cncc2CCCCCn2c(-c3nc4cc(C(=O)N5C[C@H](N)[C@@H]6CC[C@H]5C6)cc(F)c4n3C3CC3)cc3ccc1nc32` [Example 440, (2~{R})-17-[5-[(1~{S},4~{R},5~{R})-4-amino-2-azabicyclo[3.2.1]octane-2-carbonyl]-1-cyclopropyl-7-fluoro-benzimidazol-2-yl]-6-fluoro-2-methyl-3,8,16,22-tetrazatetracyclo[14.5.2.0^{5,10}.0^{19,23}] tricosa-1(22),5(10),6,8,17,19(23),20-heptaen-4-one], the IC50 turned out to be 27 nM. Then `COc1cc(C(=O)N2C[C@H](N)[C@@H]3CC[C@H]2C3)cc2nc(-c3cc4ccc5nc4n3CCCCCCC(C)(C)C(=O)N[C@@H]5C)n(C)c12` [Example 441, (11~{R})-17-[5-[(1~{S),4~{R},5~{R})-4-amino-2-azabicyclo[3.2.1]octane-2-carbonyl]-7-methoxy-1-methyl-benzimidazol-2-yl]-8,8,11-trimethyl-1,10,19-triazatricyclo[10.5.2.0^{15,18}]nonadeca-12(19),13,15(18),16-tetraen-9-one], with 37 nM; and `COc1cc(C(=O)N2C[C@H](N)[C@@H]3CC[C@H]2C3)cc2nc(-c3cc4ccc5nc4n3CC(F)(F)CCC[C@@H]3C[C@H]3C(=O)N[C@@H]5C)n(C)c12` [Example 442, (2~{R},5~{R},7~{R})-14-[5-[(1~{S),4~{R},5~{R})-4-amino-2-azabicyclo[3.2.1]octane-2-carbonyl]-7-methoxy-1-methyl-benzimidazol-2-yl]-11,11-difluoro-2-methyl-3,13,19-triazatetracyclo[11.5.2.0^{5,7).0^{16,20}] icosa-1(19),14,16(20),17-tetraen-4-one], with 32 nM.

With `COc1cc(C(=O)N2C[C@H](N)[C@@H]3CC[C@H]2C3)cc2nc(-c3cc4ccc5nc4n3CCCCCC(C)(C)C(=O)N[C@@H]5C)n(C)c12` [Example 443, (10~{R})-16-[5-[(1~{S},4~{R},5~{})-4-amino-2-azabicyclo[3.2.1]octane-2-carbonyl]-7-methoxy-1-methyl-benzimidazol-2-yl]-7,7,10-trimethyl-1,9,18-triazatricyclo[9.5.2.0^{14,17}]octadeca-11(18),12,14(17),15-tetraen-8-one], the IC50 stood at 37 nM. To `COc1cc(C(=O)N2C[C@H](N)[C@@H]3CC[C@H]2C3)cc2nc(-c3cc4ccc5nc4n3CCCCC[C@@H]3C[C@H]3C(=O)N[C@@H]5C)n(C)c12` [Example 444, (2~{R},5~{R},7~{R})-14-[5-[(1~{S},4~{R},5~{R})-4-amino-2-azabicyclo[3.2.1]octane-2-carbonyl]-7-methoxy-1-methyl-benzimidazol-2-yl]-2-methyl-3,13,19-triazatetracyclo[11.5.2.0^{5,7}.0^{16,20}] icosa-1(19),14,16(20),17-tetraen-4-one] belongs 20 nM.
